Where “and” joins values, the source holds several entries; their conditions need not be identical. Equal entries are not always repeated. Inconclusive results and toxic doses are left out.
Test system: L1210 leukemia ip in BDF1 mice, survival T/C
Experiment: NCI In Vivo Anticancer Drug Screen. Data for tumor model L1210 Leukemia (intraperitoneal) in B6D2F1 (BDF1) mice
Conditions: endpoint: mean survival time, higher = longer survival
Method in brief: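 Survival endpoint. Drug-treated group vs vehicle group, expressed as T divided by C. Tumor passaged by transplantation.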

O=NN(CCF)C(=O)NC1CCCCC1
T/C (dose: 0.33 mg/kg/injection, schedule: Q#B X003 (ip), vehicle: other): 109 % of control
T/C (dose: 0.66 mg/kg/injection, schedule: Q#B X003 (ip), vehicle: other): 119 % of control
T/C (dose: 0.93 mg/kg/injection, schedule: Q01DX001 (ip), vehicle: carboxymethylcellulose (CMC)): 102 % of control
T/C (dose: 1.33 mg/kg/injection, schedule: Q#B X003 (ip), vehicle: other): 121 % of control
T/C (dose: 1.56 mg/kg/injection, schedule: Q03HX032 (ip), vehicle: carboxymethylcellulose (CMC)): 111 % of control
T/C (dose: 1.87 mg/kg/injection, schedule: Q01DX001 (ip), vehicle: carboxymethylcellulose (CMC)): 102 % of control
T/C (dose: 2.97 mg/kg/injection, schedule: Q01DX015 (ip), vehicle: other): 96 % of control and 117 % of control
T/C (dose: 3.12 mg/kg/injection, schedule: Q01DX001 (sc), vehicle: other): 122 % of control
T/C (dose: 3.12 mg/kg/injection, schedule: Q03HX008 (ip), vehicle: carboxymethylcellulose (CMC)): 188 % of control
T/C (dose: 3.12 mg/kg/injection, schedule: Q03HX032 (ip), vehicle: carboxymethylcellulose (CMC)): 416 % of control
T/C (dose: 3.12 mg/kg/injection, schedule: Q03HX032 (oral), vehicle: carboxymethylcellulose (CMC)): 177 % of control
T/C (dose: 3.75 mg/kg/injection, schedule: Q01DX001 (ip), vehicle: carboxymethylcellulose (CMC)): 112 % of control
T/C (dose: 5.0 mg/kg/injection, schedule: Q01DX001 (ip), vehicle: carboxymethylcellulose (CMC)): 108 % of control
T/C (dose: 6.0 mg/kg/injection, schedule: Q02DX008 (ip), vehicle: other): 157 % of control and 160 % of control
T/C (dose: 6.25 mg/kg/injection, schedule: Q01DX001 (sc), vehicle: other): 117 % of control
T/C (dose: 6.25 mg/kg/injection, schedule: Q01DX013 (ip), vehicle: carboxymethylcellulose (CMC)): 122 % of control
T/C (dose: 6.25 mg/kg/injection, schedule: Q03HX008 (oral), vehicle: carboxymethylcellulose (CMC)): 605 % of control
T/C (dose: 6.25 mg/kg/injection, schedule: Q03HX032 (oral), vehicle: carboxymethylcellulose (CMC)): 288 % of control
T/C (dose: 6.25 mg/kg/injection, schedule: Q## X006 (ip), vehicle: carboxymethylcellulose (CMC)): 111 % of control
T/C (dose: 6.25 mg/kg/injection, schedule: Q## X006 (oral), vehicle: carboxymethylcellulose (CMC)): 305 % of control
T/C (dose: 6.75 mg/kg/injection, schedule: Q01DX015 (ip), vehicle: other): 448 % of control and 489 % of control
T/C (dose: 9.0 mg/kg/injection, schedule: Q02DX008 (ip), vehicle: other): 345 % of control and 397 % of control
T/C (dose: 10.0 mg/kg/injection, schedule: Q01DX015 (ip), vehicle: other): 424 % of control and 524 % of control
T/C (dose: 12.0 mg/kg/injection, schedule: Q## X004 (ip), vehicle: other): 370 % of control and 608 % of control
T/C (dose: 12.5 mg/kg/injection, schedule: Q01DX001 (ip), vehicle: carboxymethylcellulose (CMC)): 183 % of control
T/C (dose: 12.5 mg/kg/injection, schedule: Q01DX001 (sc), vehicle: other): 157 % of control
T/C (dose: 12.5 mg/kg/injection, schedule: Q01DX013 (ip), vehicle: carboxymethylcellulose (CMC)): 183 % of control
T/C (dose: 12.5 mg/kg/injection, schedule: Q03HX032 (oral), vehicle: carboxymethylcellulose (CMC)): 255 % of control
T/C (dose: 12.5 mg/kg/injection, schedule: Q## X006 (ip), vehicle: carboxymethylcellulose (CMC)): 155 % of control
T/C (dose: 13.5 mg/kg/injection, schedule: Q01DX001 (ip), vehicle: other): 187 % of control
T/C (dose: 13.5 mg/kg/injection, schedule: Q01DX001 (oral), vehicle: other): 178 % of control and 183 % of control
T/C (dose: 13.5 mg/kg/injection, schedule: Q02DX008 (ip), vehicle: other): 456 % of control and 470 % of control
T/C (dose: 13.5 mg/kg/injection, schedule: Q## X001 (ip), vehicle: other): 247 % of control
T/C (dose: 13.5 mg/kg/injection, schedule: Q## X001 (oral), vehicle: other): 253 % of control
T/C (dose: 14.0 mg/kg/injection, schedule: Q## X032 (ip), vehicle: other): 341 % of control
T/C (dose: 15.0 mg/kg/injection, schedule: Q01DX001 (ip), vehicle: carboxymethylcellulose (CMC)): 174 % of control
T/C (dose: 15.0 mg/kg/injection, schedule: Q01DX015 (ip), vehicle: other): 158 % of control and 438 % of control
T/C (dose: 16.2 mg/kg/injection, schedule: Q01DX001 (ip), vehicle: other): 314 % of control
T/C (dose: 18.0 mg/kg/injection, schedule: Q## X004 (ip), vehicle: other): 601 % of control and 682 % of control
T/C (dose: 20.0 mg/kg/injection, schedule: Q01DX001 (ip), vehicle: carboxymethylcellulose (CMC)): 250 % of control
T/C (dose: 20.0 mg/kg/injection, schedule: Q02DX008 (ip), vehicle: other): 380 % of control and 649 % of control
T/C (dose: 22.0 mg/kg/injection, schedule: Q## X032 (ip), vehicle: other): 240 % of control
T/C (dose: 23.0 mg/kg/injection, schedule: Q01DX001 (ip), vehicle: other): 238 % of control
T/C (dose: 25.0 mg/kg/injection, schedule: Q01DX001 (ip), vehicle: carboxymethylcellulose (CMC)): 192 % of control
T/C (dose: 25.0 mg/kg/injection, schedule: Q01DX001 (oral), vehicle: carboxymethylcellulose (CMC)): 616 % of control and 733 % of control
T/C (dose: 25.0 mg/kg/injection, schedule: Q01DX001 (sc), vehicle: carboxymethylcellulose (CMC)): 216 % of control
T/C (dose: 25.0 mg/kg/injection, schedule: Q01DX001 (sc), vehicle: other): 317 % of control
T/C (dose: 25.0 mg/kg/injection, schedule: Q01DX005 (oral), vehicle: carboxymethylcellulose (CMC)): 344 % of control
T/C (dose: 25.0 mg/kg/injection, schedule: Q## X006 (ip), vehicle: carboxymethylcellulose (CMC)): 733 % of control
T/C (dose: 25.0 mg/kg/injection, schedule: Q## X006 (oral), vehicle: carboxymethylcellulose (CMC)): 355 % of control
T/C (dose: 27.0 mg/kg/injection, schedule: Q01DX001 (ip), vehicle: other): 241 % of control and 302 % of control
T/C (dose: 27.0 mg/kg/injection, schedule: Q01DX001 (oral), vehicle: other): 264 % of control and 289 % of control
T/C (dose: 27.0 mg/kg/injection, schedule: Q## X001 (ip), vehicle: other): 447 % of control
T/C (dose: 27.0 mg/kg/injection, schedule: Q## X001 (oral), vehicle: other): 280 % of control and 426 % of control
T/C (dose: 27.0 mg/kg/injection, schedule: Q## X004 (ip), vehicle: other): 412 % of control and 594 % of control
T/C (dose: 30.0 mg/kg/injection, schedule: Q01DX001 (ip), vehicle: carboxymethylcellulose (CMC)): 322 % of control
T/C (dose: 30.0 mg/kg/injection, schedule: Q02DX008 (ip), vehicle: other): 153 % of control and 256 % of control
T/C (dose: 32.0 mg/kg/injection, schedule: Q## X032 (ip), vehicle: other): 105 % of control
T/C (dose: 36.0 mg/kg/injection, schedule: Q01DX001 (ip), vehicle: other): 529 % of control
T/C (dose: 40.0 mg/kg/injection, schedule: Q## X004 (ip), vehicle: other): 209 % of control and 600 % of control
T/C (dose: 41.0 mg/kg/injection, schedule: Q## X001 (oral), vehicle: other): 383 % of control
T/C (dose: 45.0 mg/kg/injection, schedule: Q01DX001 (ip), vehicle: carboxymethylcellulose (CMC)): 344 % of control
T/C (dose: 48.0 mg/kg/injection, schedule: Q## X032 (ip), vehicle: other): 114 % of control and 120 % of control
T/C (dose: 50.0 mg/kg/injection, schedule: Q01DX001 (oral), vehicle: carboxymethylcellulose (CMC)): 716 % of control
T/C (dose: 50.0 mg/kg/injection, schedule: Q01DX001 (sc), vehicle: carboxymethylcellulose (CMC)): 733 % of control
T/C (dose: 50.0 mg/kg/injection, schedule: Q01DX005 (oral), vehicle: carboxymethylcellulose (CMC)): 200 % of control
T/C (dose: 50.0 mg/kg/injection, schedule: Q04DX004 (ip), vehicle: carboxymethylcellulose (CMC)): 183 % of control
T/C (dose: 50.0 mg/kg/injection, schedule: Q04DX004 (oral), vehicle: carboxymethylcellulose (CMC)): 205 % of control
T/C (dose: 50.0 mg/kg/injection, schedule: Q## X006 (ip), vehicle: carboxymethylcellulose (CMC)): 733 % of control
T/C (dose: 50.0 mg/kg/injection, schedule: Q## X006 (oral), vehicle: carboxymethylcellulose (CMC)): 116 % of control
T/C (dose: 54.0 mg/kg/injection, schedule: Q01DX001 (ip), vehicle: carboxymethylcellulose (CMC)): 282 % of control
T/C (dose: 54.0 mg/kg/injection, schedule: Q01DX001 (oral), vehicle: other): 352 % of control
T/C (dose: 54.0 mg/kg/injection, schedule: Q## X001 (ip), vehicle: other): 421 % of control
T/C (dose: 54.0 mg/kg/injection, schedule: Q## X001 (oral), vehicle: other): 226 % of control
T/C (dose: 60.0 mg/kg/injection, schedule: Q## X004 (ip), vehicle: other): 200 % of control
T/C (dose: 67.0 mg/kg/injection, schedule: Q01DX001 (ip), vehicle: carboxymethylcellulose (CMC)): 289 % of control
T/C (dose: 100.0 mg/kg/injection, schedule: Q01DX001 (oral), vehicle: carboxymethylcellulose (CMC)): 166 % of control and 244 % of control
T/C (dose: 100.0 mg/kg/injection, schedule: Q04DX004 (oral), vehicle: carboxymethylcellulose (CMC)): 122 % of control
T/C (dose: 200.0 mg/kg/injection, schedule: Q01DX001 (oral), vehicle: carboxymethylcellulose (CMC)): 155 % of control
